In patent US6603023B2 (priority 1996, dated 2003):
Where two headings read alike, the source gives them in different places.

Tests used:
Human CCRF-CEM Xenograft = test: CCRF-CEM xenograft in scid mice; type: in vivo, CB-17 scid mice
[1] = tested on: PC-3 Human Prostate Carcinoma; test: PC-3 xenograft; type: in vivo, nude mice; details: for Average Body Weight, Day 5: initial weight
[2] = tested on: human ovarian adenocarcinoma SK-OV-3
[3] = tested on: CCRF-CEM human T-cell acute lymphoblastic leukemia cell line; test: XTT cytotoxicity (cell growth inhibition), CCRF-CEM; details: Homo sapiens, CCRF-CEM
How it was run: (§1)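 Cells seeded at 5×10^4 cells/mL in RPMI-1640 + 10% heat-inactivated FBS, 37 °C/5% CO2; resistant lines cultured continuously with selecting agent. 72 h drug incubation. XTT (1 mg/mL) mixed with PMS to 0.025 mM PMS, 4 h, read 450 nm/630 nm.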

P388/Adr = test: cells; type: cell-based, murine; details: Mus musculus, P388/ADR, 72 h
Experimental: The drug-resistant cell lines were continuously cultured in the presence of the selecting agent, AD, DX, VBL or VM to maintain the drug resistant phenotypes. […] All cells were cultured in RPMI 1640-10% FBS at 37° C. 5% CO2 (see below).
The cells were cultured at an initial density of 5×10^4 cells/mL. They were maintained in a 5% CO2-humidified atmosphere at 37° C. in RPMI-1640 medium (GIBCO-BRL, Gaithersburg, Md.) containing penicillin (100 U/mL), streptomycin ([…]) (GIBCO-BRL) and 10% heat inactivate fetal bovine serum. Culture for cell suspension (such as for CCRF-CEM, P388 and sublines), were performed by the XTT-microculture tetrazonium method (Scudiero, D. A. et al., Cancer Res. 1988, 48, 4827-4833) in duplicate in 96-well microtiter plates.
2′,3′-Bis(methoxy-4-nitro-5-sufophenyl)-5-[(phenylamino)carbonyl]2H-tetrazolium hyudroxide (XTT) was prepared at 1 mg/mL in prewarmed (37° C.) medium without serum. Phenazine methosulfate (PMS) and fresh XTT were mixed together to obtain 0.025 mM PMS-XTT solution (25 μL of the stock 5 mM PMS was added per 5 mL of 1 mg/mL XTT). Following a 72 h incubation, 50 μL of the assay aliquots were added to each well of the cell culture. After incubation at 37° C. for 4 h, absorbance at 450 nm and 630 nm was measured with a microplate reader (EL340, Bio-Tek Instruments, Inc., Winooski, Vt.).

[4] = tested on: A549 Human Lung Carcinoma; test: A549 xenograft; type: in vivo, nude mice; details: for Average Tumor Size, Day 11: control 96; for Average Tumor Size, Day 13: control 128; for Average Tumor Size, Day 15: control 306; for Average Tumor Size, Day 17: control 553; for Average Body Weight, Day 7: initial weight
CCRF-CEM/VM1 = test: cells; type: cell-based, human; details: Homo sapiens, CCRF-CEM
How it was run: as §1

B16 Melanoma = type: in vivo, B6D2F1 mice; details: B6D2F1, mouse, in vivo
Experimental: Body weight was determined at 0, 2, 4, 6, 8, 10 and 12 days. […] Injections were started on day 1. […] Body weight was determined at 0, 2, 4, 6, 8, 10 and 12 days. […] Injections were started on day 1.

[5] = dose 2.0 i.p. QD d7-10,14,15, day 12
[6] = dose 2.0 i.p. QD d7-10,14,15, day 17
[7] = dose 2.0 i.p. QD d7-10,14,15, day 22
[8] = dose 4.0 i.p. QD d7-10,14,15, day 12
[9] = dose 4.0 i.p. QD d7-10,14,15, day 17
[10] = dose 4.0 i.p. QD d7-10,14,15, day 22
[11] = 6 hr i.v. infusion: dEpoB 40, Taxol 24 mg/kg
[12] = PC-3 Prostate, dEpoB 40 mg/kg Q2D x 3, Taxol 15 mg/kg Q2D x 3
[13] = dEpoB 30 mg/kg 18 hr i.v. infusion, Taxol 16 mg/kg 6 hr infusion, VBL 2 and VP-16 25 mg/kg i.v. inj
[14] = SK-OV-3 Ovary, dEpoB 30 mg/kg Q2D x 6, Taxol 15 mg/kg Q2D x 6
[15] = A549 Lung, dEpoB 40 mg/kg Q2D x 3, Taxol 15 mg/kg Q2D x 3
[16] = Q2D x 3, 6 hr i.v. infusion: dEpoB 40, Taxol 24 mg/kg
[17] = Q2D x 3: dEpoB 30 mg/kg 18 hr i.v. infusion, Taxol 15 mg/kg 6 hr infusion, VBL 2 and VP-16 25 mg/kg i.v. inj

CC(=O)O[C@H]1C(=O)[C@@]2(C)[C@H]([C@H](OC(=O)c3ccccc3)[C@]3(O)C[C@H](OC(=O)[C@H](O)[C@@H](NC(=O)c4ccccc4)c4ccccc4)C(C)=C1C3(C)C)[C@]1(OC(C)=O)CO[C@@H]1C[C@@H]2O [Taxol ®, paclitaxel]
Average weight change (Human CCRF-CEM Xenograft; dose 2.0 i.p. QD d7-10,14,15, day 7): −0.1
Average tumor volume (control = 1.00) (Human CCRF-CEM Xenograft; [5]): 0.39
Average weight change (Human CCRF-CEM Xenograft; [5]): −1.1
Average tumor volume (control = 1.00) (Human CCRF-CEM Xenograft; [6]): 0.29
Average weight change (Human CCRF-CEM Xenograft; [6]): −1.5
Average tumor volume (control = 1.00) (Human CCRF-CEM Xenograft; [7]): 0.28
Average weight change (Human CCRF-CEM Xenograft; [7]): −0.3
Average weight change (Human CCRF-CEM Xenograft; dose 4.0 i.p. QD d7-10,14,15, day 7): −0.2
Average tumor volume (control = 1.00) (Human CCRF-CEM Xenograft; [8]): 0.37
Average weight change (Human CCRF-CEM Xenograft; [8]): −1.7
Average tumor volume (control = 1.00) (Human CCRF-CEM Xenograft; [9]): 0.23
Average weight change (Human CCRF-CEM Xenograft; [9]): −1.9
Average tumor volume (control = 1.00) (Human CCRF-CEM Xenograft; [10]): 0.19
Average weight change (Human CCRF-CEM Xenograft; [10]): −0.3
Average Body Weight (change), Day 9 [1, 11]: -2.2 g
Average Body Weight (change), Day 11 [1, 11]: -2.8 g
Average Body Weight (change), Day 13 [1, 11]: -0.8 g
Average Tumor Size (TC), Day 9 [1, 11]: 0.18 TC
Average Tumor Size (TC), Day 11 [1, 11]: 0.05 TC
Average Tumor Size (TC), Day 13 [1, 11]: 0.06 TC
Tumor Disappearance [1, 11]: 2/4
Lowest Average Tumor Size (T/C) [1, 12]: 0.02 T/C
Tumor Disappearance [1, 12]: 0
Average Body Weight (change), Day 9 [1, 13]: -1.1 g
Average Body Weight (change), Day 11 [1, 13]: -0.9 g
Average Body Weight (change), Day 13 [1, 13]: +0.4 g
Average Tumor Size (TC), Day 9 [1, 13]: 0.34 TC
Average Tumor Size (TC), Day 11 [1, 13]: 0.09 TC
Average Tumor Size (TC), Day 13 [1, 13]: 0.02 TC
Tumor Disappearance [1, 13]: 0/4
Average Body Weight, Day 5 [1, 11]: 28.8 g
Average Body Weight, Day 5 [1, 13]: 26.6 g
Tumor Disapp. ([2]; 5 mg/kg i.p. Q2Dx5 from day 9): 0/6
Average Body Weight Change ([2]; 5 mg/kg i.p. Q2Dx5 from day 9, day 13): -1.1 g
Average Body Weight Change ([2]; 5 mg/kg i.p. Q2Dx5 from day 9, day 15): -2.0 g
Average Body Weight Change ([2]; 5 mg/kg i.p. Q2Dx5 from day 9, day 17): -1.0 g
Average Body Weight Change ([2]; 5 mg/kg i.p. Q2Dx5 from day 9, day 19): -0.2 g
Lowest Average Tumor Size (T/C) [2, 14]: 0.02 T/C
Tumor Disappearance [2, 14]: 1/4
Tumor Disapp. ([2]; Taxol 15 mg/kg i.v. Q2Dx5 from day 9): 0/6
Average Body Weight Change ([2]; Taxol 15 mg/kg i.v. Q2Dx5 from day 9, day 13): -0.6 g
Average Body Weight Change ([2]; Taxol 15 mg/kg i.v. Q2Dx5 from day 9, day 15): -0.8 g
Average Body Weight Change ([2]; Taxol 15 mg/kg i.v. Q2Dx5 from day 9, day 17): -0.8 g
Average Body Weight Change ([2]; Taxol 15 mg/kg i.v. Q2Dx5 from day 9, day 19): -0.9 g
Toxicity Death ([2]; nude, mouse, in vivo): 0/6
IC50 [3]: 2.1 nM
IC50 ([3]; 72 h, Table 1A, XTT): 2.1 nM
IC50 ([3]; Table 1, XTT): 2 nM
IC50 ([3]; Table 2): 2.3 nM
IC50 ([3]; Table 5, single determinations): 2.1 nM
IC50 ([3]; read-out: IC50 (A), Table 2A, parent cell line): 2.3 nM
IC50 (P388/Adr): 326 nM
Lowest Average Tumor Size (T/C) [4, 15]: 0.01 T/C
Tumor Disappearance [4, 15]: 2/4
Average Body Weight (change), Day 11 [4, 16]: -2.1 g
Average Body Weight (change), Day 13 [4, 16]: -2.7 g
Average Body Weight (change), Day 15 [4, 16]: -0.9 g
Tumor Disappearance [4, 16]: 4/4
Average Tumor Size, Day 11 [4, 16]: 14 mm^3
Average Tumor Size, Day 13 [4, 16]: 8 mm^3
Average Tumor Size, Day 15 [4, 16]: 0 mm^3
Average Tumor Size, Day 17 [4, 16]: 0 mm^3
Average Body Weight (change), Day 11 [4, 17]: -1.2 g
Average Body Weight (change), Day 13 [4, 17]: -0.8 g
Average Body Weight (change), Day 15 [4, 17]: +0.5 g
Tumor Disappearance [4, 17]: 2/4
Average Tumor Size, Day 11 [4, 17]: 49 mm^3
Average Tumor Size, Day 13 [4, 17]: 32 mm^3
Average Tumor Size, Day 15 [4, 17]: 7 mm^3
Average Tumor Size, Day 17 [4, 17]: 6 mm^3
Average Body Weight, Day 7 [4, 16]: 28.5 g
Average Body Weight, Day 7 [4, 17]: 27.6 g
IC50 (CCRF-CEM/VM1; 72 h, Table 1A, XTT): 6.6 nM
IC50 (CCRF-CEM/VM1; Table 1, XTT): 2 nM
IC50 (CCRF-CEM/VM1; Table 2, CCR-CEM/VM-1): 3 nM
IC50 (CCRF-CEM/VM1; Table 2A, Topo II gene mutated cell line): 3 nM
IC50 (CCRF-CEM/VM1; Table 5, single determinations): 6.6 nM
# Mice Died (B16 Melanoma): 0/8
